One data set deals with THP-1. The experiment in a line: Inhibition of LPS-induced TNFalpha production in human THP1 cells. In kind it is functional, cell-based.
Data set [1] is described as follows: Clearance in rat at 10 mg/kg, iv. In kind it is ADME, organism-based. On the set-up: dose 10 mg/kg, route intravenous. The conditions noted are these: in vivo.
Data set [2] can be described thus: Cmax in rat at 30 mg/kg, po. Conditions: in vivo. In kind it is ADME, organism-based. On the set-up: dose 30 mg/kg, route oral.
Data set [3] can be described thus: Oral bioavailability in rat at 30 mg/kg. In kind it is ADME, organism-based. The conditions noted are these: in vivo.
Data set [4] can be described thus: AUC in rat at 30 mg/kg, po. Format: ADME, organism-based. Also on record: dose 30 mg/kg, route oral. The conditions noted are these: plasma.
The nature of data set [5]: Tmax in rat at 30 mg/kg, po. In kind it is ADME, organism-based. On the set-up: dose 30 mg/kg, route oral. The conditions noted are these: in vivo.
Data set [6] has as its target T1, Mitogen-activated protein kinase 14 (Homo sapiens, UniProt Q16539). The experiment in a line: Inhibition of human p38alpha phosphorylation.
A short description of data set [7]: Half life in rat at 30 mg/kg, po. The conditions noted are these: in vivo. On the set-up: dose 30 mg/kg, route oral. In kind it is ADME, organism-based.
The target in data set [8] is T1, Mitogen-activated protein kinase 14. The experiment in a line: Inhibition of human p38alpha.
Data set [9] can be described thus: Volume of distribution at steady state in rat at 10 mg/kg, iv. In kind it is ADME, organism-based. On the set-up: dose 10 mg/kg, route intravenous. Conditions: in vivo, read-out: Vdss.

The record followed here is ChEMBL document CHEMBL1142500, “'Reverse' alpha-ketoamide-based p38 MAP kinase inhibitors” (Bioorg Med Chem Lett, 2008).

A word on the IC50: it is the point on the concentration scale where inhibition reaches its midpoint. What is called clearance is the rate of elimination divided by the concentration. A low value points to a low capacity for elimination. The term Cmax denotes the highest concentration seen after dosing. For orientation: bioavailability means dose-corrected exposure relative to a reference, in per cent. Low values mean poor availability, high ones good availability. Usually AUC stands for the area under the concentration-time curve, a measure of exposure. A high value points to more exposure. By Tmax is commonly meant the time from dosing to the highest level. By half-life is commonly meant how long it takes for the measured level to halve.

T1 sequence (Q16539 whole entry): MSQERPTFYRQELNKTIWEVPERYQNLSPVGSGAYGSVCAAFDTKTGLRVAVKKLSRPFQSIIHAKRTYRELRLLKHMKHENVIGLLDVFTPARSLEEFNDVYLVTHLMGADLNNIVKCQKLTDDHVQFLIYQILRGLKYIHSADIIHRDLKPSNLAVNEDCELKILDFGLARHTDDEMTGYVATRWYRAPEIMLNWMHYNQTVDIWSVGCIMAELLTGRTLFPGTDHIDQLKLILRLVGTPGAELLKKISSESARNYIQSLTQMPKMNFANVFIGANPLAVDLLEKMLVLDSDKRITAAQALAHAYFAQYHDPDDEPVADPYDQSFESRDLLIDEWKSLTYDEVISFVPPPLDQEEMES

Take `Cn1nc(C(C)(C)C)cc1NC(=O)C(=O)c1ccc(OCCN2CCOCC2)c2ccccc12`: half-maximal inhibition in the data set on THP-1 (IC50) was put at 440 nM. In other words, the sub-micromolar range.

In the case of `Cc1cccc(-n2nc(C(C)(C)C)cc2/C(=N/O)C(=O)Nc2ccc(OCCN3CCOCC3)c3ccccc23)c1`, the clearance in data set [1] is 10.2 mL/min/kg. The compound further yielded a maximum concentration (Cmax) in data set [2] of 4000 ng/mL. This compound also had a bioavailability in data set [3] of 54%. In data set [4], this compound gave an AUC of 26000 ng·h/mL. Besides, the 50% inhibitory concentration (IC50) with THP-1 was found to be 49 nM; in data set [6], 100 nM; in [8], 59 nM. Also, the Tmax in [5] worked out at 1.5 h. For the same compound, the half-life in data set [7] was 2.9 h. Further, the Vd in data set [9] is 1.5 L/kg.

As for `Cc1oc(C(C)(C)C)cc1C(=O)C(=O)Nc1ccc(OCCN2CCOCC2)c2ccccc12`, the IC50 was 61 nM with THP-1, 270 nM in data set [6] and 22 nM in [8].

Take `Cc1oc(C(C)(C)C)cc1C(=O)C(=O)Nc1ccc(-c2ccc(CN3CCOCC3)nc2)c2ccccc12`: the IC50 was found to be 9 nM in the data set with THP-1, 20 nM in data set [6] and 59 nM in [8].

As for `Cc1cccc(-n2nc(C(C)(C)C)cc2C(=O)C(=O)Nc2ccc(OCCN3CCOCC3)c3ccccc23)c1`, the IC50 in the data set on THP-1 came out at 280 nM.

Take `Cc1ccc(-n2nc(C(C)(C)C)cc2C(=O)C(=O)Nc2ccc(OCCN3CCOCC3)c3ccccc23)cc1`: half-maximal inhibition in the data set on THP-1 (IC50) required 330 nM.

`CC(C)(C)c1cc(C(=O)C(=O)Nc2ccc(OCCN3CCOCC3)c3ccccc23)n(-c2ccc(F)c(F)c2)n1` showed an IC50 in the data set on THP-1 of 180 nM. This IC50 lies about 1.8-fold lower than the previous one.

For `Cc1ccc(-n2nc(C(C)(C)C)cc2/C(=C/O)C(=O)Nc2ccc(OCCN3CCOCC3)c3ccccc23)cc1`, the IC50 in the data set with THP-1 was 3300 nM.

As for `Cc1oc(C(C)(C)C)cc1C(=O)C(=O)Nc1ccc(Nc2ncccn2)c2ccccc12`, the IC50 in the data set with THP-1 is 460 nM.

In the data set on THP-1, `Cn1nc(C(C)(C)C)cc1NC(=O)C(=O)c1ccc(-c2ccc(CN3CCOCC3)nc2)c2ccccc12` gave an IC50 of 850 nM.

In the case of `Cn1nc(C(C)(C)C)cc1C(=O)C(=O)Nc1ccc(OCCN2CCOCC2)c2ccccc12`, the half-maximal inhibitory concentration (IC50) with THP-1 turned out to be 70 nM; in data set [6], 70 nM; in data set [8], 14 nM.

With `Cc1oc(C(C)(C)C)cc1C(=O)C(=O)Nc1ccc(Nc2ccncn2)c2ccccc12`, the half-maximal inhibitory concentration (IC50) in the data set with THP-1 turned out to be 59 nM.
